The results in this text go back to patent publication US9273330B2, “Butanol tolerance in microorganisms” (Butamax Advanced Biofuels LLC, priority 2012, dated 2016).

One assay relates to isobutanologen PNY1530. Nature of the assay: Isobutanol selection: viable cell count after 24 hour exposure of high-density PNY1530 cultures. The assay is classed as cell-based, Saccharomyces cerevisiae. Here is the method:
Cultures of PNY1530 were subjected to five rounds of selection in increasing concentrations of isobutanol. The first round of isobutanol selection was initiated by growing PNY1530 to OD600=1.8 in 100 ml of SEU culture medium (yeast nitrogen base supplemented with Sigma yeast synthetic dropout medium without uracil (Sigma Y1501) and with 0.2% ethanol). The cells were centrifuged, resuspended in 100 ml of fresh culture medium and grown for several hours to approximately 3 OD600 units. The culture was centrifuged and resuspended at OD600=100 (approximately 5×10^8 cfu/ml) in 3 ml of culture medium without ethanol. A small sample was removed from the cell suspension for a viable cell count, and the remaining cell suspension was divided into three cultures containing 1.5% isobutanol, 1.7% isobutanol or 2.0% isobutanol. Each culture was incubated at 30° C. on a roller drum for 24 hours. The cultures were then centrifuged, and the cell pellets were each resuspended in 1 ml of culture medium without isobutanol or ethanol. Small samples were removed from the cultures for viable cell counts, and the remaining portion of each cell suspension (approximately 975 μl) was inoculated into 10 ml of SEU culture medium. The cultures were incubated at 30° C. with shaking. In general, each subsequent round of isobutanol selection was initiated with cells that had survived the highest level of isobutanol selection in the previous round of exposure.
Increased numbers of survivors were observed following each exposure to isobutanol (Table 7). For example, only 1.8% of the cells survived 24 hour exposure to 2.0% isobutanol during Selection I whereas 100% of the population survived 24 hour exposure to 2.0% isobutanol during Selection IV.

The test system of assay [1] is population of cells that had survived 24 hour exposure to 2.5% isobutanol during Selection IV. The assay can be described thus: Serial passage in SEGU culture medium with glucose and isobutanol. The assay is classed as cell-based, Saccharomyces cerevisiae. The note with it: 30° C., after 48 hours (1:2 dilution after 24 hours). Here is the method:
A population of cells that had been evolved through four isobutanol exposures (Selection IV, Example 2) was repeatedly sub-cultured in growth medium supplemented with glucose and isobutanol to select for cells that were better able to utilize glucose in the presence of isobutanol.
A population of cells that had survived 24 hour exposure to 2.5% isobutanol during Selection IV (see Table 7) was diluted into SEGU culture medium (SEU with 0.2% glucose) to OD600=0.8. The diluted cell suspension was divided into 1.5 ml cultures, dispensed into 2 ml sterile screw cap tubes and supplemented with various concentrations of isobutanol. The cultures were incubated at 30° C. on a roller drum. After 24 hours, the cultures were diluted 1:2 with the SEGU culture medium comprising the same amount of isobutanol as the previous culture. […] The 0.5% culture was serially sub-cultured 10 times by diluting the culture to approximately OD600=0.5 in SEGU culture medium containing 0.5% isobutanol and incubating the diluted culture at 30° C. for 24 to 48 hours before diluting the culture again.

For the compound `CC(C)CO` [Isobutanol, 2-methyl-1-propanol], the “Percent Survival” value is listed as 73 in the assay on isobutanologen PNY1530 (1.5% isobutanol, Selection I); 53 with isobutanologen PNY1530 (1.7% isobutanol, Selection I); 1.8 → in the assay with isobutanologen PNY1530 (2.0% isobutanol, Selection I); 1.8 in the assay with isobutanologen PNY1530 (2.0% isobutanol, Selection I, listed as isobutanol); 12 → in the assay with isobutanologen PNY1530 (2.0% isobutanol, Selection II); 21 in the assay on isobutanologen PNY1530 (2.0% isobutanol, Selection III). In addition, the “Percent Survival” value was 100 in the assay with isobutanologen PNY1530 (2.0% isobutanol, Selection IV); 0.8 in the assay with isobutanologen PNY1530 (2.2% isobutanol, Selection III); 45 with isobutanologen PNY1530 (2.2% isobutanol, Selection IV); 0.0003 in the assay on isobutanologen PNY1530 (2.5% isobutanol, Selection II); 0.0006 → in the assay with isobutanologen PNY1530 (2.5% isobutanol, Selection III); 14 → in the assay on isobutanologen PNY1530 (2.5% isobutanol, Selection IV). The “Percent Survival” value is 4.5 in the assay with isobutanologen PNY1530 (2.5% isobutanol, Selection V); “no survivors were detected” with isobutanologen PNY1530 (2.7% isobutanol, Selection II); 0.004 with isobutanologen PNY1530 (2.7% isobutanol, Selection V). Besides, the “highest concentration that permitted growth” value in assay [1] was found to be 0.5%.
